# What was measured:
# [1] = modified phenyl-p-quinone writhing assay in mice (analgesia); format: in vivo, mice (male, Charles River, CD-1)
# Protocol: The procedure employed to determine analgesic utility is a modification of the phenyl-p-quinone writhing assay in mice, a standard assay for analgesia [Proc. Soc. Exptl. Bio. Med., 95 729 (1957)]. In the modified procedure phenyl-p-benzoquinone (Eastman, 12.5 mg) is dissolved in 5 ml of 95% ethanol and the solution is diluted to a total volume of 100 ml with distilled water. The solution is administered to the subject mice […] at a dose of 10 ml per kg of body weight. A characteristic "writh", an inward rotation of one or more feet with twisting and turning of the trunk, drawing in of the abdominal wall, lordosis and arching of the back, is produced.
# A total of 28 male mice (Charles River, CD-1), weighing 18 to 30 grams, are employed for a time response. The subject animals receive food and water ad libitum. Test compounds are dissolved in distilled water, or suspended in distilled water containing one drop of a suitable surfactant, such as Tween-80.
# Four groups of five animals (20 animals) are given the test compound subcutaneously at 15, 30, 45 and 60 minutes prior to administration of the phenyl-p-quinone. Four control groups of 2 animals (8 animals) receive an equal volume of the vehicle. […] The number of writhes for each animal is recorded. […]
# [2] = climbing mice assay (antipsychotic activity; inhibition of apomorphine induced climbing); format: in vivo, mice (CK-1 male); conditions: Mus musculus, ip, 30 minutes prior to apomorphine 1.5 mg/kg s.c., read-out: Anti-Psychotic Activity (ED50), 50% inhibition of apomorphine induced climbing
# Description: The subject CK-1 male mice (23-27 grams) are group-housed under standard laboratory conditions. The mice are individually placed in wire mesh stick cages (4"×4" by 10") and are allowed one hour for adaptation and exploration of the new environment.
# Mice consistently climbing before the injection of apomorphine are discarded.
# With full-developed apomorphine climbing, the animals are hanging onto the cage walls, rather motionless, over longer periods of time. By contrast, climbs due to mere motor stimulation usually last only a few seconds.
Compound,"Analgesic Activity (% Inhibition of Writhing) ([1]; at 1.3 mg/kg sc, standard) [%]",ED50 [2] [mg/kg],"Analgesic Activity (% Inhibition of Writhing) ([1]; at 20 mg/kg, subcutaneous (route per method)) [%]"
CC(C)=CCN1CCC2(C)c3cc(O)ccc3CC1C2C (stereo not shown) [Pentazocine],50,–,–
CSc1ccc2c(c1)N(CCC1CCCCN1C)c1ccccc1S2 (stereo not shown) [Thioridazine],–,4.1,–
CSc1ccc2c(c1)N(CCCN1CCC(C(O)c3ccc(F)cc3)CC1)c1ccccc1S2 (stereo not drawn) [α-(4-Fluorophenyl)-1-[3-(2-methylthiophenothiazin-10-yl)propyl]-4-piperidinemethanol],–,8.6,43

# — US4822796A, “1-((Phenothiazin-10-yl)alkyl)-alpha-phenyl-4-piperidinemethanols and pharmaceutical use” (priority 1987, dated 1989)
